Measurements published in patent publication US4282236A, “β-Lactam antibacterial agents, their use in pharmaceutical compositions, and intermediates” (Beecham Group Limited, priority 1979, dated 1981).

Columns and labels:
Format in all cases: cell-based
[1] = test system: Staphylococcus aureus Russell; test: MIC, microtitre using nutrient broth; conditions: read-out: minimum inhibitory concentration (MIC)
Procedure: (§1) The penem ester (21) (30 mg) was dissolved in a mixture of dioxane (4 ml) and water (1 ml) and hydrogenated over 5% palladium on charcoal catalyst (45 mg) for one hour. A further amount of catalyst (30 mg) was added and the hydrogenation was continued for a further one and a half hours. A 1% solution of sodium bicarbonate (0.6 ml) was added and the mixture filtered through Kieselguhr. The mixture was evaporated to low volume, water (10 ml) was added, and the aqueous solution washed with a little ethyl acetate. Evaporation of the aqueous phase afforded the sodium salt (22) (17 mg) as an amorphous solid. λmax. (EtOH) 364 n.m.
(§2) 2. Microtitre using nutrient
(§3) lution for G.div.ve bacteria or
(§4) broth a 10^- 4 dilution for G-ve
(§5) Minimum Inhibitory Concentrations are expressed in microgrammes per ml.

Pseudomonas aeruginosa A [2] = test: MIC, microtitre using nutrient broth; conditions: read-out: minimum inhibitory concentration (MIC)
Procedure: as §1, §2, §3, §4, §5

[3] = test system: Staphylococcus aureus Oxford; test: MIC, microtitre using nutrient broth; conditions: read-out: minimum inhibitory concentration (MIC)
Procedure: as §1, §2, §3, §4, §5

Proteus mirabilis C977 [4] = test: MIC, microtitre using nutrient broth; conditions: read-out: minimum inhibitory concentration (MIC)
Procedure: as §1, §2, §3, §4, §5

Klebsiella aerogenes A [5] = test: MIC, microtitre using nutrient broth; conditions: read-out: minimum inhibitory concentration (MIC)
Procedure: as §1, §2, §3, §4, §5

Escherichia coli 0111 [6] = test: MIC, microtitre using nutrient broth; conditions: read-out: minimum inhibitory concentration (MIC)
Procedure: as §1, §2, §3, §4, §5

Escherichia coli JT 39 [7] = test: MIC, microtitre using nutrient broth; conditions: JT39, read-out: minimum inhibitory concentration (MIC)
Procedure: as §1, §2, §3, §4, §5

[8] = test system: Salmonella typhimurium CT10; test: MIC, microtitre using nutrient broth; conditions: Salmonella enterica, read-out: minimum inhibitory concentration (MIC)
Procedure: as §1, §2, §3, §4, §5

[9] = test system: Staphylococcus aureus Russell; test: MIC, DST agar + 10% horse blood; conditions: read-out: minimum inhibitory concentration (MIC)
Procedure: as §1
(§6) 1. DST agar + 10% horse blood
as §3, §5

[10] = test system: Streptococcus pneumoniae CN33; test: MIC, DST agar + 10% horse blood; conditions: read-out: minimum inhibitory concentration (MIC)
Procedure: as §1, §6, §3, §5

Pseudomonas aeruginosa A [11] = test: MIC, DST agar + 10% horse blood; conditions: read-out: minimum inhibitory concentration (MIC)
Procedure: as §1, §6, §3, §5

[12] = test system: Staphylococcus aureus Oxford; test: MIC, DST agar + 10% horse blood; conditions: read-out: minimum inhibitory concentration (MIC)
Procedure: as §1, §6, §3, §5

Proteus morganii I580 = test: MIC, DST agar + 10% horse blood; conditions: Morganella morganii, read-out: minimum inhibitory concentration (MIC)
Procedure: as §1, §6, §3, §5

Proteus mirabilis C977 [13] = test: MIC, DST agar + 10% horse blood; conditions: read-out: minimum inhibitory concentration (MIC)
Procedure: as §1, §6, §3, §5

Klebsiella aerogenes A [14] = test: MIC, DST agar + 10% horse blood; conditions: read-out: minimum inhibitory concentration (MIC)
Procedure: as §1, §6, §3, §5

Bacillus subtilis A = test: MIC, DST agar + 10% horse blood; conditions: read-out: minimum inhibitory concentration (MIC)
Procedure: as §1, §6, §3, §5

Escherichia coli 0111 [15] = test: MIC, DST agar + 10% horse blood; conditions: read-out: minimum inhibitory concentration (MIC)
Procedure: as §1, §6, §3, §5

Escherichia coli JT 39 [16] = test: MIC, DST agar + 10% horse blood; conditions: JT39, read-out: minimum inhibitory concentration (MIC)
Procedure: as §1, §6, §3, §5

Proteus rettgeri WM16 = test: MIC, DST agar + 10% horse blood; conditions: Providencia rettgeri, read-out: minimum inhibitory concentration (MIC)
Procedure: as §1, §6, §3, §5

Citrobacter freundii E8 = test: MIC, DST agar + 10% horse blood; conditions: read-out: minimum inhibitory concentration (MIC)
Procedure: as §1, §6, §3, §5

Shigella sonnei MB 11967 = test: MIC, DST agar + 10% horse blood; conditions: MB11967, read-out: minimum inhibitory concentration (MIC)
Procedure: as §1, §6, §3, §5

[17] = test system: Streptococcus pyogenes CN10; test: MIC, DST agar + 10% horse blood; conditions: read-out: minimum inhibitory concentration (MIC)
Procedure: as §1, §6, §3, §5

E. coli ESS = test: MIC, DST agar + 10% horse blood; conditions: Escherichia coli, read-out: minimum inhibitory concentration (MIC)
Procedure: as §1, §6, §3, §5

Enterobacter cloacae N1 = test: MIC, DST agar + 10% horse blood; conditions: read-out: minimum inhibitory concentration (MIC)
Procedure: as §1, §6, §3, §5

Proteus vulgaris W091 = test: MIC, DST agar + 10% horse blood; conditions: read-out: minimum inhibitory concentration (MIC)
Procedure: as §1, §6, §3, §5

[18] = test system: Staphylococcus aureus 1517; test: MIC, DST agar + 10% horse blood; conditions: read-out: minimum inhibitory concentration (MIC)
Procedure: as §1, §6, §3, §5

Serratia marcescens US20 = test: MIC, DST agar + 10% horse blood; conditions: read-out: minimum inhibitory concentration (MIC)
Procedure: as §1, §6, §3, §5

[19] = test system: Salmonella typhimurium CT10; test: MIC, DST agar + 10% horse blood; conditions: Salmonella enterica, read-out: minimum inhibitory concentration (MIC)
Procedure: as §1, §6, §3, §5

SMILES: COC(=O)/C=C/C1=C(C(=O)O)N2C(=O)C[C@H]2S1 [compound 22, Sodium 2-(trans-2-Carbomethoxy-vinyl) penem-3-carboxylate]
- MIC [1]: 16 µg/mL
- MIC (Pseudomonas aeruginosa A [2]): > 500 µg/mL
- MIC [3]: 8 µg/mL
- MIC (Proteus mirabilis C977 [4]): 125 µg/mL
- MIC (Klebsiella aerogenes A [5]): 31 µg/mL
- MIC (Escherichia coli 0111 [6]): 62 µg/mL
- MIC (Escherichia coli JT 39 [7]): 250 µg/mL
- MIC [8]: 125 µg/mL
- MIC [9]: 10 µg/mL
- MIC [10]: 0.5 µg/mL
- MIC (Pseudomonas aeruginosa A [11]): > 100 µg/mL
- MIC [12]: 5 µg/mL
- MIC (Proteus morganii I580): 50 µg/mL
- MIC (Proteus mirabilis C977 [13]): 25 µg/mL
- MIC (Klebsiella aerogenes A [14]): 25 µg/mL
- MIC (Bacillus subtilis A): 5 µg/mL
- MIC (Escherichia coli 0111 [15]): 25 µg/mL
- MIC (Escherichia coli JT 39 [16]): 100 µg/mL
- MIC (Proteus rettgeri WM16): 50 µg/mL
- MIC (Citrobacter freundii E8): 25 µg/mL
- MIC (Shigella sonnei MB 11967): 100 µg/mL
- MIC [17]: 2.5 µg/mL
- MIC (E. coli ESS): 25 µg/mL
- MIC (Enterobacter cloacae N1): 50 µg/mL
- MIC (Proteus vulgaris W091): 50 µg/mL
- MIC [18]: 50 µg/mL
- MIC (Serratia marcescens US20): 50 µg/mL
- MIC [19]: 50 µg/mL
